Measured values: US12441736B2, “KIF18A inhibitors” (AMGEN INC., priority 2018, dated 2025)

Molecular target: T1, Recombinant human KIF18A (1-467 His-tagged) protein (Homo sapiens, UniProt Q8NI77)
T1 construct: Recombinant human KIF18A (1-467 His-tagged) protein; His; made in house
Assay: KIF18A Enzyme Assay: microtubule-stimulated ATPase activity (ADP-Glo)
Type: biochemical
Conditions: 30 nM KIF18A, 30 μg/mL pig microtubules, 75 μM ATP, ADP-Glo luminescence
How it was run: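 IC50 comes from a four-parameter logistic fit over a 22-point, 2-fold series, with ADP quantified by ADP-Glo luminescence. Reactions ran at room temperature: compound plus 30 nM KIF18A(1-467)-His for 15 min, then 75 μM ATP (Km) for 15 min. The buffer held pig microtubules at 30 μg/mL and 1 μM taxol.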

T1 sequence (Q8NI77 1-467): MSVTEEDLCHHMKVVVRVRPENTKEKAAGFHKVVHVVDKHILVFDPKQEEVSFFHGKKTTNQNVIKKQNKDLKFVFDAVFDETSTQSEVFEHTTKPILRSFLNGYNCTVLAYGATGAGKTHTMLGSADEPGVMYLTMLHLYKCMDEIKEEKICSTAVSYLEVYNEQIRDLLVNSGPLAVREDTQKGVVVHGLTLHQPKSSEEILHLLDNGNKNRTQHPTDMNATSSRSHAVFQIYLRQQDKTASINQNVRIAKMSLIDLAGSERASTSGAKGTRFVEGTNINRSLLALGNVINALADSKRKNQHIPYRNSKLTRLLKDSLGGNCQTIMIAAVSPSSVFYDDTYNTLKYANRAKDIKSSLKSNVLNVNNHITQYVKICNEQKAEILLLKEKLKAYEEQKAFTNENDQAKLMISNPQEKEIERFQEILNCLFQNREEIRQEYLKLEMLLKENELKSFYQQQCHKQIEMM
T1 sequence (P02550 whole entry partner): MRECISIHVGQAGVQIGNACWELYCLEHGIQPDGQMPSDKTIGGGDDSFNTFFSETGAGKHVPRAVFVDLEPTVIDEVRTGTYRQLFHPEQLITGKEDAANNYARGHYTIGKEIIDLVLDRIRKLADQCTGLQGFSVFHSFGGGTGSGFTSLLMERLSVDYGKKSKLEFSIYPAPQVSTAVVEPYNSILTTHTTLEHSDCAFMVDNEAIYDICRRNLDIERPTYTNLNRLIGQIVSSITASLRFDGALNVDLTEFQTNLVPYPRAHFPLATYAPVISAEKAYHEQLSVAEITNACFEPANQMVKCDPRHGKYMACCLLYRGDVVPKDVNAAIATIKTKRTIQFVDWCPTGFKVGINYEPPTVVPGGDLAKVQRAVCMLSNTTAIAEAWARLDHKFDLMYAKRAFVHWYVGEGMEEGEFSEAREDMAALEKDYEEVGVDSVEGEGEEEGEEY
T1 sequence (P02554 whole entry partner): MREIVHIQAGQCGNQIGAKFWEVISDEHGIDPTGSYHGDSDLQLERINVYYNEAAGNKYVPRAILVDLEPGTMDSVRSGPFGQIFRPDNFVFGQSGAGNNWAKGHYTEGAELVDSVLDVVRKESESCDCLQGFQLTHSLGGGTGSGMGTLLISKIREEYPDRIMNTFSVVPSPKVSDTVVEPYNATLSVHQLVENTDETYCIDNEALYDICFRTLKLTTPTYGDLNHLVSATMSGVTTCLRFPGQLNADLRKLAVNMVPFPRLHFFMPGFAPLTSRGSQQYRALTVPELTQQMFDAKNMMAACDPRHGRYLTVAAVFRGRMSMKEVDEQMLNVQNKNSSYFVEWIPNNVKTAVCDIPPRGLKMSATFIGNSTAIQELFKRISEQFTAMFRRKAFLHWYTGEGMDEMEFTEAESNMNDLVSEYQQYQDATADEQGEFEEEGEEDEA

IC50 | SMILES
59.1 nM | CC(CO)(CO)Nc1ccc(C(=O)Nc2cccc(N3CCC(F)(F)C3)n2)c(N2CCC3(CC2)CC3)n1 [Example 149, 2-(6-azaspiro[2.5]oct-6-yl)-N-(6-(3,3-difluoro-1-pyrrolidinyl)-2-pyridinyl)-6-((1,3-dihydroxy-2-methyl-2-propanyl)amino)-3-pyridinecarboxamide]
74.3 nM | CC(C)(CO)Nc1ccc(C(=O)Nc2cc(Cl)cc(N3CCOCC3)n2)c(N2CCC3(CC2)CC3)n1 [Example 152, 2-(6-azaspiro[2.5]oct-6-yl)-N-(4-chloro-6-(4-morpholinyl)-2-pyridinyl)-6-((1-hydroxy-2-methyl-2-propanyl)amino)-3-pyridinecarboxamide]
71 nM | Cc1cc(NC(=O)c2ccc(NC(C)(C)CO)nc2N2CCC3(CC2)CC3)nc(N2CCOCC2)c1 [Example 155, 2-(6-azaspiro[2.5]octan-6-yl)-6-((1-hydroxy-2-methyl-2-propanyl)amino)-N-(4-methyl-6-(4-morpholinyl)-2-pyridinyl)-3-pyridinecarboxamide]
116 nM | CC(C)(CO)Nc1ccc(C(=O)Nc2cc(C#N)cc(N3CCOCC3)n2)c(N2CCC3(CC2)CC3)n1 [Example 156, 2-(6-azaspiro[2.5]octan-6-yl)-N-(4-cyano-6-(4-morpholinyl)-2-pyridinyl)-6-((1-hydroxy-2-methyl-2-propanyl)amino)-3-pyridinecarboxamide]
206 nM | Cc1cc(NC(=O)c2ccc(NC(C)(C)CO)nc2N2CCC3(CC2)CC3)nc(S(=O)(=O)NC(C)(C)C)c1 [Example 157, 2-(6-azaspiro[2.5]octan-6-yl)-6-((1-hydroxy-2-methyl-2-propanyl)amino)-N-(4-methyl-6-((2-methyl-2-propanyl)sulfamoyl)-2-pyridinyl)-3-pyridinecarboxamide]
402 nM | COc1cc(NC(=O)c2ccc(NC(C)(C)CO)nc2N2CCC3(CC2)CC3)nc(N2CCOCC2)c1 [Example 158, 2-(6-azaspiro[2.5]octan-6-yl)-6-((1-hydroxy-2-methyl-2-propanyl)amino)-N-(4-methoxy-6-(4-morpholinyl)-2-pyridinyl)-3-pyridinecarboxamide]
169 nM | CC1(O)CN(c2ccc(C(=O)Nc3cccc(S(=O)(=O)NC(C)(C)C)n3)c(N3CCC4(CC3)CC4)n2)C1 [Example 159, 2-(6-azaspiro[2.5]octan-6-yl)-6-(3-hydroxy-3-methyl-1-azetidinyl)-N-(6-((2-methyl-2-propanyl)sulfamoyl)-2-pyridinyl)-3-pyridinecarboxamide]
278 nM | CC(C)(CO)Nc1ccc(C(=O)Nc2cc(C3CC3)cc(N3CCOCC3)n2)c(N2CCC3(CC2)CC3)n1 [Example 160, 2-(6-azaspiro[2.5]octan-6-yl)-N-(4-cyclopropyl-6-(4-morpholinyl)-2-pyridinyl)-6-((1-hydroxy-2-methyl-2-propanyl)amino)-3-pyridinecarboxamide]
2190 nM | CC1(C)COC(=O)N1c1cccc(NC(=O)c2ccc(N3C(=O)OCC3(C)C)nc2N2CCC3(CC2)CC3)n1 [Example 161, 2-(6-azaspiro[2.5]octan-6-yl)-6-(4,4-dimethyl-2-oxo-1,3-oxazolidin-3-yl)-N-(6-(4,4-dimethyl-2-oxo-1,3-oxazolidin-3-yl)-2-pyridinyl)-3-pyridinecarboxamide]
70.7 nM | CC(C)(CO)Nc1cccc(NC(=O)c2ccc(NC(C)(C)CO)nc2N2CCC3(CC2)CC3)n1 [Example 162, 2-(6-azaspiro[2.5]octan-6-yl)-6-((1-hydroxy-2-methyl-2-propanyl)amino)-N-(6-((1-hydroxy-2-methyl-2-propanyl)amino)-2-pyridinyl)-3-pyridinecarboxamide]
159 nM | CC(C)(CO)Nc1ccc(C(=O)Nc2cccc(N3CC4(COC4)C3)n2)c(N2CCC3(CC2)CC3)n1 [Example 163, 2-(6-azaspiro[2.5]octan-6-yl)-6-((1-hydroxy-2-methyl-2-propanyl)amino)-N-(6-(2-oxa-6-azaspiro[3.3]heptan-6-yl)-2-pyridinyl)-3-pyridinecarboxamide]
2750 nM | CC(CO)(CO)Nc1ccc(C(=O)Nc2cccc(Br)n2)c(N2CCC3(CC2)CC3)n1 [Example 164, 2-(6-azaspiro[2.5]octan-6-yl)-N-(6-bromo-2-pyridinyl)-6-((1,3-dihydroxy-2-methyl-2-propanyl)amino)-3-pyridinecarboxamide]
663 nM | C[C@@H]1CN(c2cccc(NC(=O)c3ccc(N4C(=O)OCC4(C)C)nc3N3CCC4(CC3)CC4)n2)CCO1 [Example 165, 2-(6-azaspiro[2.5]octan-6-yl)-6-(4,4-dimethyl-2-oxo-1,3-oxazolidin-3-yl)-N-(6-((2R)-2-methyl-4-morpholinyl)-2-pyridinyl)-3-pyridinecarboxamide]
62.5 nM | C[C@@H]1CN(c2cccc(NC(=O)c3ccc(C(C)(O)CO)nc3N3CCC4(CC3)CC4)n2)CCO1 (stereo partly drawn) [Example 166, 6-(1,2-dihydroxypropan-2-yl)-N-(6-((R)-2-methylmorpholino)pyridin-2-yl)-2-(6-azaspiro[2.5]octan-6-yl)nicotinamide]
82.2 nM | C[C@@H]1CN(c2cccc(NC(=O)c3ccc([C@](C)(O)CO)nc3N3CCC4(CC3)CC4)n2)CCO1 [Example 167, 2-(6-azaspiro[2.5]octan-6-yl)-6-((2S)-1,2-dihydroxy-2-propanyl)-N-(6-((2R)-2-methyl-4-morpholinyl)-2-pyridinyl)-3-pyridinecarboxamide]
88.7 nM | C[C@@H]1CN(c2cccc(NC(=O)c3ccc([C@@](C)(O)CO)nc3N3CCC4(CC3)CC4)n2)CCO1 [Example 168, 2-(6-azaspiro[2.5]octan-6-yl)-6-((2R)-1,2-dihydroxy-2-propanyl)-N-(6-((2R)-2-methyl-4-morpholinyl)-2-pyridinyl)-3-pyridinecarboxamide]
89.3 nM | CC(C)(C)NS(=O)(=O)c1cccc(NC(=O)c2ccc(C(C)(O)CO)nc2N2CCC3(CC2)CC3)n1 (stereo not shown) [Example 169, N-(6-(N-(tert-butyl)sulfamoyl)pyridin-2-yl)-6-(1,2-dihydroxypropan-2-yl)-2-(6-azaspiro[2.5]octan-6-yl)nicotinamide]
157 nM | Cc1cc(NC(=O)c2ccc(NC(C)(C)CO)nc2N2CCC3(CC2)CC3)nc(NC(C)(C)CO)c1 [Example 170, 2-(6-azaspiro[2.5]octan-6-yl)-6-((1-hydroxy-2-methyl-2-propanyl)amino)-N-(6-((1-hydroxy-2-methyl-2-propanyl)amino)-4-methyl-2-pyridinyl)-3-pyridinecarboxamide]
643 nM | CC(C)(C)NS(=O)(=O)c1cccc(NC(=O)c2ccc(F)nc2N2CCC3(CC2)CC3)n1 [Example 173, 2-(6-azaspiro[2.5]octan-6-yl)-6-fluoro-N-(6-((2-methyl-2-propanyl)sulfamoyl)-2-pyridinyl)-3-pyridinecarboxamide]
62.2 nM | CC(C)(C)NS(=O)(=O)c1cccc(NC(=O)c2ccc(NC(C)(CO)CO)nc2N2CCC3(CC2)CC3)n1 [Example 174, 2-(6-azaspiro[2.5]octan-6-yl)-6-((1,3-dihydroxy-2-methyl-2-propanyl)amino)-N-(6-((2-methyl-2-propanyl)sulfamoyl)-2-pyridinyl)-3-pyridinecarboxamide]
98 nM | C[C@@H]1COCCN1c1cccc(NC(=O)c2ccc(NC(C)(C)CO)nc2N2CCC3(CC2)CC3)n1 [Example 179, 2-(6-azaspiro[2.5]octan-6-yl)-6-((1-hydroxy-2-methyl-2-propanyl)amino)-N-(6-((3R)-3-methyl-4-morpholinyl)-2-pyridinyl)-3-pyridinecarboxamide]
758 nM | CC1(C)OCC(c2ccc(C(=O)Nc3cccc(N4CCOCC4)n3)c(N3CCC4(CC3)CC4)n2)(C(F)(F)F)O1 (stereo not shown) [Example 180, 6-(2,2-dimethyl-4-(trifluoromethyl)-1,3-dioxolan-4-yl)-N-(6-morpholinopyridin-2-yl)-2-(6-azaspiro[2.5]octan-6-yl)nicotinamide]
69.9 nM | O=C(Nc1cccc(N2CCOCC2)n1)c1ccc(C(O)(CO)C(F)(F)F)nc1N1CCC2(CC1)CC2 (stereo not shown) [Example 181, N-(6-morpholinopyridin-2-yl)-2-(6-azaspiro[2.5]octan-6-yl)-6-(1,1,1-trifluoro-2,3-dihydroxypropan-2-yl)nicotinamide]
79.5 nM | C[C@@H]1CN(c2cccc(NC(=O)c3ccc(C(O)(CO)C(F)(F)F)nc3N3CCC4(CC3)CC4)n2)CCO1 (stereo partly drawn) [Example 182, N-(6-((R)-2-methylmorpholino)pyridin-2-yl)-2-(6-azaspiro[2.5]octan-6-yl)-6-(1,1,1-trifluoro-2,3-dihydroxypropan-2-yl)nicotinamide]
205 nM | C[C@H]1COCCN1c1cccc(NC(=O)c2ccc(NC(C)(C)CO)nc2N2CCC3(CC2)CC3)n1 [Example 183, 2-(6-azaspiro[2.5]octan-6-yl)-6-((1-hydroxy-2-methyl-2-propanyl)amino)-N-(6-((3S)-3-methyl-4-morpholinyl)-2-pyridinyl)-3-pyridinecarboxamide]
62 nM | Cc1cc(NC(=O)c2ccc(NC(C)(CO)CO)nc2N2CCC3(CC2)CC3)nc(N2CCOCC2)c1 [Example 184, 2-(6-azaspiro[2.5]octan-6-yl)-6-((1,3-dihydroxy-2-methyl-2-propanyl)amino)-N-(4-methyl-6-(4-morpholinyl)-2-pyridinyl)-3-pyridinecarboxamide]
592 nM | CC(C)(CO)Nc1ccc(C(=O)Nc2cccc(N3CCN(C(=O)OC(C)(C)C)CC3)n2)c(N2CCC3(CC2)CC3)n1 [Example 185, 2-methyl-2-propanyl 4-(6-(((2-(6-azaspiro[2.5]octan-6-yl)-6-((1-hydroxy-2-methyl-2-propanyl)amino)-3-pyridinyl)carbonyl)amino)-2-pyridinyl)-1-piperazinecarboxylate]
365 nM | CC(C)(CO)Nc1ccc(C(=O)Nc2cccc(N3CCOC(C(C)(C)O)C3)n2)c(N2CCC3(CC2)CC3)n1 (stereo not shown) [Example 186, 6-((1-hydroxy-2-methylpropan-2-yl)amino)-N-(6-(2-(2-hydroxypropan-2-yl)morpholino)pyridin-2-yl)-2-(6-azaspiro[2.5]octan-6-yl)nicotinamide]
